Data: publication PMC8058733, “A pain killer without analgesic tolerance designed by co-targeting PSD-95-nNOS interaction and α2-containning GABAARs” (Theranostics, 2021)

Experiments:
α5β3γ2 GABAARs = experiment: Potentiation of GABA-evoked currents, whole-cell patch-clamp in HEK293 cells transiently expressing recombinant GABAARs; assay type: cell-based
PSD-95-nNOS complex = biological target: T1, PSD-95-nNOS complex (Rattus norvegicus, UniProt P29476); experiment: Co-IP of PSD-95-nNOS complex levels in the spinal dorsal horn after SNL; assay type: in vivo; conditions: SNL rats treated by ZL006-05
T1 construct: dorsal spinal cord tissues (L4 and L5) were lysed in 400 μl RIPA; from tissue; host or cells: rat dorsal spinal cord (L4 and L5), SNL model
T1 sequence (P29476 whole entry, one chain of several): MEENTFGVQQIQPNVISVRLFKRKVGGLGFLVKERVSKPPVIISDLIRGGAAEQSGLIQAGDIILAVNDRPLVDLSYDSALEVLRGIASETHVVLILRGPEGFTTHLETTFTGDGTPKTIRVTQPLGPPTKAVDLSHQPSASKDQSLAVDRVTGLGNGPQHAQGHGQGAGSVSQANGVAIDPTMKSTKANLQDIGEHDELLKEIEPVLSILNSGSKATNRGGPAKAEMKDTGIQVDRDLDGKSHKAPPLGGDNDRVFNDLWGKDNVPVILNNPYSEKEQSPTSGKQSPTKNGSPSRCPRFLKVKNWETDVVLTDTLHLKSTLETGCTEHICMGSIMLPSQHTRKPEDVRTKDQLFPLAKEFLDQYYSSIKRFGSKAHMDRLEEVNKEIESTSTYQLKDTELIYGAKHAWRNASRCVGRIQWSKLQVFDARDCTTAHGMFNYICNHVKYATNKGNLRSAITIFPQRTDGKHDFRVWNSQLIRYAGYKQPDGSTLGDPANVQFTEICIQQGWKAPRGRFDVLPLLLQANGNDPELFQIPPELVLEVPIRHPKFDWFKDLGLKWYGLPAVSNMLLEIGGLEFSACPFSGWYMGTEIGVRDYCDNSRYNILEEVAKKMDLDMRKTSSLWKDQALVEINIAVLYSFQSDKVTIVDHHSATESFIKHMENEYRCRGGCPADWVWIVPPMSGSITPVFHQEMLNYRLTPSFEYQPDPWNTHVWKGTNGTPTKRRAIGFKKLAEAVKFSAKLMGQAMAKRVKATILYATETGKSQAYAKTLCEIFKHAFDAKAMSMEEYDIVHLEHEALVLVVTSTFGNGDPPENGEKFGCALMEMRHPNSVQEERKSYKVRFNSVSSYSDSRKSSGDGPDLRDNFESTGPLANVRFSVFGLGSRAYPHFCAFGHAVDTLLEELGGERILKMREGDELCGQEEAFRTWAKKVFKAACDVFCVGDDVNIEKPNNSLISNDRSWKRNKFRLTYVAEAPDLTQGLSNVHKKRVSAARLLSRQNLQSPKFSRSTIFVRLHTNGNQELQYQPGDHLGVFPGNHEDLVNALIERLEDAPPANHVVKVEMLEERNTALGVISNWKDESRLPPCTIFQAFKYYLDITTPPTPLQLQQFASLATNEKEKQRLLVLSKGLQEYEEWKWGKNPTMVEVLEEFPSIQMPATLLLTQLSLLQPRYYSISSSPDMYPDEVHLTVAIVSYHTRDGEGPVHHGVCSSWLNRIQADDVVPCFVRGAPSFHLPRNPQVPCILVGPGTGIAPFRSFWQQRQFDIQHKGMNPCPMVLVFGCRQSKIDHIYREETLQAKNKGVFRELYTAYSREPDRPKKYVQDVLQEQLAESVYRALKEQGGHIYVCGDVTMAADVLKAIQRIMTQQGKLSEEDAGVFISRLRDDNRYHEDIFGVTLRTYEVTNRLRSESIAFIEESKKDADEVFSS

[1] = system: SNL-induced mechanical hyperalgesia; experiment: SNL-induced mechanical hyperalgesia, paw withdrawal threshold; assay type: in vivo, rat; conditions: SNL rats, ZL006-05 60 mg/kg/d, i.g., ×11 d
[2] = system: SNL-induced mechanical hyperalgesia; experiment: SNL-induced mechanical hyperalgesia, von Frey; assay type: in vivo, mice
Description: Neuropathic pain was induced by segmental spinal nerve ligation (SNL). Animals were anesthetized with isoflurane. After the loss of righting reflex, the animal was fixed in the prone position. The SNL model was prepared as described previously: a median skin incision with about 3-5 cm length in L4-S2 level of the mouse back was made, the muscles next to the vertebrae till the sixth lumbar protruding were separated, the L5/L6 joint protruding on the right side was exposed and excised, and L6 processus transversus was partially split so that the L4-L6 spinal nerves on the right side were exposed. L5 nerve was gently isolated and tightly ligated with 5-0 silk thread. The wound was closed with 4-0 silk thread suture and covered with iodine solution. After nerve ligation, animals with signs of paw clonus or autotomy were excluded from further experiments.
For mice, the threshold for 50% PWT response to mechanical stimulus was quantified by assessing the paw withdrawal threshold using von Frey filaments (Touch-Test TM Sensory Evaluator, North coast Medical, Inc.). Mice were placed individually in a plastic cage (4.5 × 5 × 11 cm) with a wire mesh bottom which allowed full access to the paws. Behavioral accommodation was allowed for 20-30 min until cage exploration and major grooming activities ceased. Mechanical threshold was measured by applying a von Frey filament to the ventral surface of the right hind paw until a positive sign of pain behavior was elicited. The paradigm for assessing the threshold was as follows. Von Frey filaments with logarithmically incremental stiffness (0.02-2 g) were applied serially to the paw by the up-down method. The filaments were presented, in ascending order of strength, perpendicular to the plantar surface with sufficient force to causes light bending against the paw and held for 4s. A positive response was noted if the paw was sharply withdrawn. Flinching immediately upon removal of the hair was also considered a positive response. The 2-g filament was selected as the upper limit cut-off for testing. If there was no response at 2-g filament, animals were assigned this cut-off value. The pattern of positive and negative withdrawal responses was converted to 50% threshold according to the formula: 50% PWT = 10 log (X) + κδ. X = value (in log unit) of the final von Frey hair used; κ is correction factors based on the pattern of responses from the calibration table; δ = mean difference in log units between stimuli (here, 0.224).

motor coordination = experiment: Rotarod test, motor coordination; assay type: in vivo; conditions: rats, 30 min after injection, ZL006-05 60 mg/kg, i.v., diazepam 0.5 mg/kg
spatial memory = experiment: Morris water maze task; assay type: in vivo; conditions: rats; ZL006-05 90 mg/kg/d, i.g.; MK801 0.25 mg/kg/d, i.v.; 6 days
Description: The Morris water maze task was used to exam spatial cognitive performance of rats. A circular swimming pool (Jiliang Neuroscience Inc.) measuring 180 cm in diameter and 48 cm in height was filled with water to a depth of 26 cm at 24 ± 2 °C. Four starting points around the edge of the pool were designated as N, E, S, and W, which divided the pool into four quadrants. A platform, 10 cm in diameter, was located in a constant position in the middle of one quadrant. To render it invisible to the rats, platform was submerged 2.0 cm below the surface of the water. The task for the rats was to escape from the water by locating the hidden platform. Two days before training, the animals were habituated to swimming for 60 s in the pool without a platform. In training session, rats were trained to escape from the water by locating the platform which was above the water with a red flag on it. Then, one block of four trails was given for 6 consecutive days, and on each day, two groups of rats were administrated with MK801 (0.25 mg/kg, i.v.) or vehicle (6 mL/kg, i.v.) 30 minutes before the first trail. Meanwhile, another two groups of rats were treated with ZL006-05 (90 mg/kg, i.g.) or vehicle (6 mL/kg, i.g.) 1 hour before the first trail. […] During retention, the number of crossings of the platform location and the time spent in the target quadrant were measured.

## CC1(C)C2CCC1(C)C(OC(=O)c1ccc(NCc3cc(Cl)cc(Cl)c3O)cc1O)C2 (centres unmarked) [ZL006-05]
α5β3γ2 GABAARs
  Effect on α5GABAAR (in words): low efficacy on α3GABAAR and α5GABAAR
PSD-95-nNOS complex
  PSD-95-nNOS complex level in the SDH: abolished the SNL-induced increase in PSD-95-nNOS complex in the SDH
[1]
  Analgesic tolerance, mechanical hyperalgesia: did not produce analgesic tolerance
[2]; SNL mice, ZL006-05 60 mg/kg/d, i.g., × 28 d, pregabalin 30 mg/kg/d
  Analgesic tolerance, mechanical hyperalgesia, 28 days treatment: maintained its antinociceptive effect during 28 days treatment
[2]; SNL nNOS-/- and WT mice, ZL006-05 60 mg/kg/d, i.g., 11 d
  Analgesic tolerance, mechanical hyperalgesia: caused a remarkable analgesic tolerance in nNOS^-/- mice but not in WT mice
[2]; mice, ZL006-05 i.g., single administration, 0-12 h
  Effect on SNL-induced mechanical hyperalgesia: reduced SNL-induced mechanical hyperalgesia
Motor coordination
  Motor coordination, time spent on the accelerating rotarod: had no effect
Spatial memory
  Spatial memory in the Morris water maze task: but not ZL006-05 caused significantly impaired spatial memory
